The target in experiment [1] is T1, DNA topoisomerase 1 (Homo sapiens) (UniProt P11387).
T1 sequence (whole entry): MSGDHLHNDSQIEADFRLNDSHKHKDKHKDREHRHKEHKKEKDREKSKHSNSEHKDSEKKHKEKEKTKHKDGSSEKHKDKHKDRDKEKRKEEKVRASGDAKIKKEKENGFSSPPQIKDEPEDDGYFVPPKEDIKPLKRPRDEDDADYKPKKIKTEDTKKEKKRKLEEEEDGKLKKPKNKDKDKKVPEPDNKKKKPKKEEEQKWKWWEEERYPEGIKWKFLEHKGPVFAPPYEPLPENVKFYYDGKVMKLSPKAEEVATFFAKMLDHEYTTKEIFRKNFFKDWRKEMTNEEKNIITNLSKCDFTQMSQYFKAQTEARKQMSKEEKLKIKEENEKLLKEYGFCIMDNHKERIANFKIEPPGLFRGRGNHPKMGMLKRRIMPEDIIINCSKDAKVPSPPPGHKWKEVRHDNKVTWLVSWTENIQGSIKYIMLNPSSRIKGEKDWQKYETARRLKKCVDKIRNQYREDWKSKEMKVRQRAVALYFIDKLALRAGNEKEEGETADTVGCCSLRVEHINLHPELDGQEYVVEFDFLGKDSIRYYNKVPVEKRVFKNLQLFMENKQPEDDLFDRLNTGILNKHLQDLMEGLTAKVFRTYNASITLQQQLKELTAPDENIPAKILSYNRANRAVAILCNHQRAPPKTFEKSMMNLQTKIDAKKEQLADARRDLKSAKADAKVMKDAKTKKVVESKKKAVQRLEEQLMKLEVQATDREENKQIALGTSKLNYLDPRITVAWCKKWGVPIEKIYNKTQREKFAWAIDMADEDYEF
Nature of the experiment: Stability constant for DNA topoisomerase I complex in competitive DNA assay.

A further experiment deals with HeLa. Nature of the experiment: Concentration required to inhibit growth of human cervical HeLa carcinoma cell line. The format is functional, cell-based.
The target of the next experiment is T2, DNA topoisomerase 1 (Homo sapiens, UniProt P11387).
T2 sequence (P11387 whole entry): T1 sequence (whole entry)
Put plainly: Effective concentration against DNA topoisomerase I.

The subject of a further experiment is PC-3. Put plainly: Concentration required to inhibit growth of human prostate PC-3 carcinoma cell line. Format: functional, cell-based.

SMILES strings stand for the structures.

19 compounds from ChEMBL document CHEMBL1137998 (Bioorg Med Chem Lett, 2004) can be followed below.

Usually IC50 stands for the concentration needed to halve the response being measured. What is called EC50 is the concentration that produces a half-maximal response. On to `CC[C@@]1(O)C(=O)OCc2c1cc1n(c2=O)Cc2c-1nc1cc3c(cc1c2Cc1ccccc1)OCO3`, for which the K app in experiment [1] is 0.05 min⁻¹. Also, the IC50 in the experiment with HeLa (Homo sapiens, HeLa) came to 20.5 nM; in the experiment with PC-3 (Homo sapiens, PC-3), 18.9 nM. The EC50 at DNA topoisomerase 1 was 1950 nM.
The compound `CCc1c2c(nc3ccc(O)cc13)-c1cc3c(c(=O)n1C2)COC(=O)[C@]3(O)CC` (stereo in doubt; form 1) gave a K app in experiment [1] of 0.06 min⁻¹.
In experiment [1], `CC[C@@]1(O)C(=O)OCc2c1cc1n(c2=O)Cc2c-1nc1ccccc1c2CC(C)C` came in with a K app of 0.11 min⁻¹. The IC50 came to 1310 nM with HeLa (Homo sapiens, HeLa) and 170 nM in the experiment with PC-3 (Homo sapiens, PC-3). At DNA topoisomerase 1, this compound displayed an EC50 of 450 nM.
On to `CCc1c2c(nc3ccc(O)cc13)-c1cc3c(c(=O)n1C2)COC(=O)[C@]3(O)CC` (stereo in doubt; form 2), for which the K app in experiment [1] was 0.12 min⁻¹.
On to `CC[C@@]1(O)C(=O)OCc2c1cc1n(c2=O)Cc2c-1nc1cc3c(cc1c2-c1ccc(C)cc1)OCO3`, for which, in experiment [1], the K app turned out to be 0.005 min⁻¹. Moreover, the IC50 in the experiment on HeLa (Homo sapiens, HeLa) amounted to 2 nM; with PC-3 (Homo sapiens, PC-3) it was 8.3 nM. Besides, the EC50 on DNA topoisomerase 1 worked out at 1040 nM.
Compound `CC[C@@]1(O)C(=O)OCc2c1cc1n(c2=O)Cc2c-1nc1cc3c(cc1c2C1CCCC1)OCO3` registered a K app in experiment [1] of 0.02 min⁻¹. For the same compound, the IC50 in the experiment with HeLa (Homo sapiens, HeLa) turned out to be 6.2 nM; with PC-3 (Homo sapiens, PC-3), 9 nM. Further, a half-maximal response at DNA topoisomerase 1 (EC50) required 190 nM.
For `CC[C@@]1(O)C(=O)OCc2c1cc1n(c2=O)Cc2c-1nc1cc3c(cc1c2-c1ccccc1)OCO3`, in experiment [1], the K app was 0.005 min⁻¹. In addition, the concentration for half-maximal inhibition (IC50) in the experiment on HeLa (Homo sapiens, HeLa) was determined as 8.1 nM; in the experiment with PC-3 (Homo sapiens, PC-3), 8.1 nM. For the same compound, the 50% effective concentration (EC50) at DNA topoisomerase 1 was 150 nM.
`CC[C@@]1(O)C(=O)OCc2c1cc1n(c2=O)Cc2c-1nc1cc3c(cc1c2-c1ccc(Cl)cc1)OCO3`: the K app in experiment [1] amounted to 0.008 min⁻¹. Also, the 50% inhibitory concentration (IC50) in the experiment on HeLa (Homo sapiens, HeLa) is 26 nM; in the experiment on PC-3 (Homo sapiens, PC-3), 8.2 nM. This compound also gave an EC50 on DNA topoisomerase 1 of 1160 nM.
As for `CC[C@@]1(O)C(=O)OCc2c1cc1n(c2=O)Cc2cc3cc4c(cc3nc2-1)OCO4`, in experiment [1], the K app was found to be 0.05 min⁻¹. In addition, the IC50 in the experiment with HeLa (Homo sapiens, HeLa) is 9.6 nM; with PC-3 (Homo sapiens, PC-3), 8.1 nM.
For `CC[C@@]1(O)C(=O)OCc2c1cc1n(c2=O)Cc2c-1nc1cc3c(cc1c2-c1ccc(C(F)(F)F)cc1)OCO3`, in experiment [1], the K app was found to be 0.007 min⁻¹. Also, the IC50 in the experiment with HeLa (Homo sapiens, HeLa) was 6.9 nM; with PC-3 (Homo sapiens, PC-3) it was 13.4 nM. At DNA topoisomerase 1, this compound yielded an EC50 of 160 nM.
In experiment [1], `CCCCc1c2c(nc3ccccc13)-c1cc3c(c(=O)n1C2)COC(=O)[C@]3(O)CC` registered a K app of 0.05 min⁻¹. For the same compound, the IC50 with HeLa (Homo sapiens, HeLa) worked out at 37.3 nM; with PC-3 (Homo sapiens, PC-3), 48.7 nM. Besides, at DNA topoisomerase 1, the EC50 amounted to 200 nM.
With `CC[C@@]1(O)C(=O)OCc2c1cc1n(c2=O)Cc2cc3ccccc3nc2-1` [CAMPTOTHECIN], the K app in experiment [1] stood at 0.14 min⁻¹. In addition, the IC50 in the experiment with HeLa (Homo sapiens, HeLa) stood at 117 nM; in the experiment on PC-3 (Homo sapiens, PC-3), 1410 nM.
Take `CC[C@@]1(O)C(=O)OCc2c1cc1n(c2=O)Cc2c-1nc1ccccc1c2Cc1ccccc1`: the K app in experiment [1] is 0.24 min⁻¹. Besides, the IC50 in the experiment on HeLa (Homo sapiens, HeLa) came to 80.9 nM; with PC-3 (Homo sapiens, PC-3), 51.2 nM. Besides, a half-maximal response at DNA topoisomerase 1 (EC50) required 4560 nM.
As for `CCc1c2c(nc3ccc(O)cc13)-c1cc3c(c(=O)n1C2)COC(=O)[C@]3(O)CC` (stereo in doubt; form 2) [7-ETHYL-10-HYDROXYCAMPTOTHECIN], the IC50 came out at 38.8 nM in the experiment on HeLa (hela) and 35.3 nM in the experiment with PC-3 (pc-3). This compound returned an EC50 at DNA topoisomerase 1 of 70 nM.
With `CCc1c2c(nc3ccc(O)cc13)-c1cc3c(c(=O)n1C2)COC(=O)[C@]3(O)CC` (stereo in doubt; form 1) [7-ETHYL-10-HYDROXYCAMPTOTHECIN], the IC50 was determined as 25.7 nM in the experiment on HeLa (Homo sapiens, HeLa) and 35.6 nM in the experiment on PC-3 (Homo sapiens, PC-3). This compound yielded an EC50 on DNA topoisomerase 1 of 320 nM.
The compound `CCc1c2c(nc3cc4c(cc13)OCO4)-c1cc3c(c(=O)n1C2)COC(=O)[C@]3(O)CC` displayed a K app in experiment [1] of 0.03 min⁻¹. Also, the IC50 in the experiment on HeLa (Homo sapiens, HeLa) is 13.9 nM; with PC-3 (Homo sapiens, PC-3), 10 nM. This compound also had an EC50 on DNA topoisomerase 1 of 270 nM.
As to `CC[C@@]1(O)C(=O)OCc2c1cc1n(c2=O)Cc2c-1nc1cc3c(cc1c2C1CCCCC1)OCO3`, the K app in experiment [1] was found to be 0.03 min⁻¹. Besides, the IC50 is 9 nM in the experiment on HeLa (Homo sapiens, HeLa) and 11.5 nM in the experiment on PC-3 (Homo sapiens, PC-3). For the same compound, the EC50 at DNA topoisomerase 1 is 1000 nM.
In experiment [1], `CC[C@@]1(O)C(=O)OCc2c1cc1n(c2=O)Cc2c-1nc1cc3c(cc1c2-c1ccc(F)cc1)OCO3` returned a K app of 0.004 min⁻¹. For the same compound, the IC50 with HeLa (Homo sapiens, HeLa) turned out to be 16.2 nM; with PC-3 (Homo sapiens, PC-3), 6.3 nM. This compound gave a half-maximal effective concentration (EC50) on DNA topoisomerase 1 of 1390 nM.
As to `CC[C@@]1(O)C(=O)OCc2c1cc1n(c2=O)Cc2c-1nc1ccccc1c2C(C)(C)C`, the K app in experiment [1] stood at 0.26 min⁻¹. In addition, the IC50 in the experiment on HeLa (Homo sapiens, HeLa) was found to be 204 nM; in the experiment with PC-3 (Homo sapiens, PC-3) it was 308 nM. The same compound showed an EC50 at DNA topoisomerase 1 of 240 nM.
